We go through six compounds from patent US4284631A, “7-Substituted cephem compounds and pharmaceutical antibacterial compositions containing them” (Fujisawa Pharmaceutical Co., Ltd., priority 1978, dated 1981).

Common to all, as to test: In vitro antibacterial activity, two-fold agar-plate dilution method
What all share (format): cell-based

Assay [1] relates to Escherichia coli NIHJ JC-2. The following applies: NIHJJC2, HI-agar, 37° C., 20 hours, read-out: MIC (minimal inhibitory concentration). Here is the method: (§1) In vitro antibacterial activity was determined by the two-fold agar-plate dilution method as described below.
(§2) One loopful of the 100-fold dilution of an overnight culture of each test strain in Trypticasesoy broth was streaked on heart infusion agar (HI-agar) containing graded concentrations of the test compound and incubated at 37° C. for 20 hours. The minimal inhibitory concentration (MIC) was expressed in μg/ml.

The test system of assay [2] is Klebsiella pneumoniae 20. The note with it: HI-agar, 37° C., 20 hours, read-out: MIC (minimal inhibitory concentration). The method, then:
as §1, §2

Assay [3] deals with Proteus mirabilis 18. The note with it: HI-agar, 37° C., 20 hours, read-out: MIC (minimal inhibitory concentration). Here is the method: as §1, §2
Assay [4] concerns Proteus vulgaris IAM-1025. The note with it: IAM1025, HI-agar, 37° C., 20 hours, read-out: MIC (minimal inhibitory concentration). Here is the method:
as §1, §2

For assay [5], the system named is Pseudomonus aeruginosa NCTC-10490. The note with it: HI-agar, 37° C., 20 hours, read-out: MIC (minimal inhibitory concentration). Here is the method:
as §1, §2

Assay [6] deals with Staphylococcus aureus 209 P JC-1. The note with it: 209PJC1, HI-agar, 37° C., 20 hours, read-out: MIC (minimal inhibitory concentration). Here is the method:
as §1, §2

The structures appear in SMILES notation. Converted amounts (≈) assume the structure as drawn. Structures can show the parent of a compound that is named as a salt.

Regarding `CSCO/N=C(\C(=O)NC1C(=O)N2C(C(=O)O)=CCSC12)c1csc(N)n1` (stereo not drawn) [Compound 4, 7-[2-(2-aminothiazol-4-yl)-2-(methylthiomethoxyimino)acetamido]-3-cephem-4-carboxylic acid (syn isomer)], the MIC was 0.05 mg/L (≈ 0.116 µM) in assay [1]; 0.025 mg/L (≈ 0.0582 µM) in assay [2]; 0.05 mg/L (≈ 0.116 µM) in assay [3]; 0.025 mg/L (≈ 0.0582 µM) in assay [4]; 1.56 mg/L (≈ 3.63 µM) in assay [5]; 1.56 mg/L (≈ 3.63 µM) in assay [6].

Turning to `Nc1nc(/C(=N/OCCO)C(=O)NC2C(=O)N3C(C(=O)O)=CCSC23)cs1` (stereo not drawn) [Compound 2, 7-[2-(2-aminothiazol-4-yl)-2-(2-hydroxyethoxyimino)acetamido]-3-cephem-4-carboxylic acid (syn isomer)], the MIC in assay [1] was determined as 0.05 mg/L (≈ 0.121 µM); in assay [2], 0.025 mg/L (≈ 0.0605 µM); in assay [3], 0.025 mg/L (≈ 0.0605 µM); in assay [4], 0.025 mg/L (≈ 0.0605 µM); in assay [5] it was 3.13 mg/L (≈ 7.57 µM); in assay [6], 12.5 mg/L (≈ 30.2 µM).

As to `NCc1ccc(CO/N=C(\C(=O)NC2C(=O)N3C(C(=O)O)=CCSC23)c2csc(N)n2)cc1` (stereo not drawn) [Compound 5, 7-[2-(2-aminothiazol-4-yl)-2-(4-aminomethylbenzyloxyimino)acetamido]-3-cephem-4-carboxylic acid dihydrochloride (syn isomer)], the MIC in assay [1] turned out to be 0.1 mg/L; in assay [2], 0.05 mg/L; in assay [3], 0.1 mg/L; in assay [4] it was 0.05 mg/L; in assay [5], 3.13 mg/L; in assay [6], 0.78 mg/L.

As for `CCOCCO/N=C(\C(=O)NC1C(=O)N2C(C(=O)O)=CCSC12)c1csc(N)n1` (stereo not drawn) [Compound 3, 7-[2-(2-aminothiazol-4-yl)-2-(2-ethoxyethoxyimino)acetamido]-3-cephem-4-carboxylic acid (syn isomer)], the MIC in assay [1] came out at 0.2 mg/L (≈ 0.453 µM); in assay [2], 0.025 mg/L (≈ 0.0566 µM); in assay [3], 0.2 mg/L (≈ 0.453 µM); in assay [4] it was 0.025 mg/L (≈ 0.0566 µM); in assay [5], 1.56 mg/L (≈ 3.53 µM); in assay [6], 3.13 mg/L (≈ 7.09 µM).

As for `N#CCO/N=C(\C(=O)NC1C(=O)N2C(C(=O)O)=CCSC12)c1csc(N)n1` (stereo not drawn) [Compound 1, 7-[2-(2-aminothiazol-4-yl)-2-cyanomethoxyiminoacetamido]-3-cephem-4-carboxylic acid (syn isomer)], the MIC turned out to be 0.05 mg/L (≈ 0.122 µM) in assay [1]; 0.025 mg/L (≈ 0.0612 µM) in assay [2]; 0.025 mg/L (≈ 0.0612 µM) in assay [3]; 0.025 mg/L (≈ 0.0612 µM) in assay [4]; 1.56 mg/L (≈ 3.82 µM) in assay [5]; 6.25 mg/L (≈ 15.3 µM) in assay [6].

In the case of `Nc1nc(/C(=N/OCc2ccon2)C(=O)NC2C(=O)N3C(C(=O)O)=CCSC23)cs1` (stereo not drawn) [Compound 6, 7-[2-(2-aminothiazol-4-yl)-2-(3-isoxazolylmethoxyimino)acetamido]-3-cephem-4-carboxylic acid (syn isomer)], the MIC in assay [1] came out at 0.1 mg/L (≈ 0.222 µM); in assay [2] it was 0.025 mg/L (≈ 0.0555 µM); in assay [3], 0.1 mg/L (≈ 0.222 µM); in assay [4], 0.025 mg/L (≈ 0.0555 µM); in assay [5] it was 1.56 mg/L (≈ 3.46 µM); in assay [6], 3.13 mg/L (≈ 6.95 µM).
